Laboratory results taken from ChEMBL document CHEMBL1201862, “PubChem BioAssay data set” (2004).
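Growth conditions: 96-well plates. Treatment: test compound, 48 hours, 5 concentrations. Analysis: linear interpolation between bracketing concentrations; unreached endpoints set to highest concentration. At the GI50, growth is halved.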 Active and inactive are the calls of the source. Cut-off read from the data, not from the text of the source: active = GI50 up to about 1.1 µM and inactive = higher.

Legend:
Assay in all cases: growth of human tumour cells (NCI), 48 h
786-0 = tested on: 786-0
A549 = tested on: A549
ACHN = tested on: ACHN
BT-549 = tested on: BT-549
CAKI-1 = tested on: CAKI-1
CCRF-CEM = tested on: CCRF-CEM
COLO 205 = tested on: COLO 205
DU-145 = tested on: DU-145
EKVX = tested on: EKVX
HCC 2998 = tested on: HCC 2998
HCT-116 = tested on: HCT-116
HCT-15 = tested on: HCT-15
HL-60 = tested on: HL-60
HOP-62 = tested on: HOP-62
HOP-92 = tested on: HOP-92
HT-29 = tested on: HT-29
Hs-578T = tested on: Hs-578T
IGROV-1 = tested on: IGROV-1
K562 = tested on: K562
KM12 = tested on: KM12
LOX IMVI = tested on: LOX IMVI
M14 = tested on: M14
MCF7 = tested on: MCF7
MDA-MB-231 = tested on: MDA-MB-231
MDA-MB-435 = tested on: MDA-MB-435
MDA-N = tested on: MDA-N
MOLT-4 = tested on: MOLT-4
Malme-3M = tested on: Malme-3M
NCI-H226 = tested on: NCI-H226
NCI-H23 = tested on: NCI-H23
NCI-H522 = tested on: NCI-H522
NCI/ADR-RES = tested on: NCI/ADR-RES
OVCAR-3 = tested on: OVCAR-3
OVCAR-4 = tested on: OVCAR-4
OVCAR-5 = tested on: OVCAR-5
OVCAR-8 = tested on: OVCAR-8
PC-3 = tested on: PC-3
RPMI-8226 = tested on: RPMI-8226
RXF 393 = tested on: RXF 393
SF-268 = tested on: SF-268
SF-295 = tested on: SF-295
SF-539 = tested on: SF-539
SK-MEL-28 = tested on: SK-MEL-28
SK-MEL-2 = tested on: SK-MEL-2
SK-MEL-5 = tested on: SK-MEL-5
SK-OV-3 = tested on: SK-OV-3
SN12C = tested on: SN12C
SNB-19 = tested on: SNB-19
SNB-75 = tested on: SNB-75
SR = tested on: SR
SW-620 = tested on: SW-620
T47D = tested on: T47D
TK-10 = tested on: TK-10
U-251 = tested on: U-251
UACC-257 = tested on: UACC-257
UACC-62 = tested on: UACC-62
UO-31 = tested on: UO-31
A498 = tested on: A498
NCI-H460 = tested on: NCI-H460

CCOC(=O)C(NC(=O)c1ccccc1)(N1CCOCC1)C(F)(F)F (centres undefined)
GI50 (786-0): > 100 µM (inactive) | GI50 (A549): > 100 µM (inactive) | GI50 (ACHN): > 100 µM (inactive) | GI50 (BT-549): > 100 µM (inactive) | GI50 (CAKI-1): > 100 µM (inactive) | GI50 (CCRF-CEM): > 100 µM (inactive) | GI50 (COLO 205): > 100 µM (inactive) | GI50 (DU-145): > 100 µM (inactive) | GI50 (EKVX): > 100 µM (inactive) | GI50 (HCC 2998): > 100 µM (inactive) | GI50 (HCT-116): > 100 µM (inactive) | GI50 (HCT-15): > 100 µM | GI50 (HL-60): > 100 µM (inactive) | GI50 (HOP-62): > 100 µM (inactive) | GI50 (HOP-92): > 100 µM (inactive) | GI50 (HT-29): > 100 µM (inactive) | GI50 (Hs-578T): > 100 µM (inactive) | GI50 (IGROV-1): > 100 µM (inactive) | GI50 (K562): > 100 µM (inactive) | GI50 (KM12): > 100 µM (inactive) | GI50 (LOX IMVI): > 100 µM (inactive) | GI50 (M14): > 100 µM (inactive) | GI50 (MCF7): > 100 µM (inactive) | GI50 (MDA-MB-231): > 100 µM (inactive) | GI50 (MDA-MB-435): > 100 µM (inactive) | GI50 (MDA-N): > 100 µM (inactive) | GI50 (MOLT-4): > 100 µM (inactive) | GI50 (Malme-3M): > 100 µM (inactive) | GI50 (NCI-H226): > 100 µM (inactive) | GI50 (NCI-H23): > 100 µM (inactive) | GI50 (NCI-H522): > 100 µM (inactive) | GI50 (NCI/ADR-RES): > 100 µM (inactive) | GI50 (OVCAR-3): > 100 µM (inactive) | GI50 (OVCAR-4): > 100 µM (inactive) | GI50 (OVCAR-5): > 100 µM (inactive) | GI50 (OVCAR-8): > 100 µM (inactive) | GI50 (PC-3): > 100 µM (inactive) | GI50 (RPMI-8226): > 100 µM (inactive) | GI50 (RXF 393): > 100 µM (inactive) | GI50 (SF-268): > 100 µM (inactive) | GI50 (SF-295): > 100 µM (inactive) | GI50 (SF-539): > 100 µM (inactive) | GI50 (SK-MEL-28): > 100 µM (inactive) | GI50 (SK-MEL-2): > 100 µM (inactive) | GI50 (SK-MEL-5): > 100 µM (inactive) | GI50 (SK-OV-3): > 100 µM (inactive) | GI50 (SN12C): > 100 µM (inactive) | GI50 (SNB-19): > 100 µM (inactive) | GI50 (SNB-75): > 100 µM (inactive) | GI50 (SR): > 100 µM (inactive) | GI50 (SW-620): > 100 µM (inactive) | GI50 (T47D): > 100 µM (inactive) | GI50 (TK-10): > 100 µM (inactive) | GI50 (U-251): > 100 µM (inactive) | GI50 (UACC-257): > 100 µM (inactive) | GI50 (UACC-62): > 100 µM (inactive) | GI50 (UO-31): > 100 µM (inactive)

CC(=O)OC[C@@]1(C)[C@@H]2[C@@H]3[C@@]4(CO[C@]3(C)C(=O)[C@@]3(OC(C)=O)C[C@H](C)[C@H](OC(C)=O)[C@@H]3[C@H]4OC(C)=O)[C@H](OC(=O)c3ccccc3)C[C@@H]21
GI50 (786-0): > 100 µM (inactive) | GI50 (A498): > 100 µM (inactive) | GI50 (A549): 74.1 µM (inactive) | GI50 (ACHN): > 100 µM (inactive) | GI50 (BT-549): > 100 µM (inactive) | GI50 (CAKI-1): > 100 µM (inactive) | GI50 (CCRF-CEM): 32.8 µM (inactive) | GI50 (COLO 205): 49.8 µM (inactive) | GI50 (DU-145): > 100 µM (inactive) | GI50 (EKVX): 63.2 µM (inactive) | GI50 (HCC 2998): > 100 µM (inactive) | GI50 (HCT-116): 67.9 µM (inactive) | GI50 (HCT-15): > 100 µM | GI50 (HL-60): 63.8 µM (inactive) | GI50 (HOP-62): > 100 µM (inactive) | GI50 (HOP-92): > 100 µM (inactive) | GI50 (HT-29): 89.9 µM (inactive) | GI50 (Hs-578T): > 100 µM (inactive) | GI50 (IGROV-1): > 100 µM (inactive) | GI50 (K562): 24 µM (inactive) | GI50 (KM12): > 100 µM (inactive) | GI50 (LOX IMVI): 79.6 µM (inactive) | GI50 (M14): 91.4 µM (inactive) | GI50 (MCF7): 81.8 µM (inactive) | GI50 (MDA-MB-231): > 100 µM (inactive) | GI50 (MDA-MB-435): > 100 µM (inactive) | GI50 (MDA-N): > 100 µM (inactive) | GI50 (Malme-3M): > 100 µM (inactive) | GI50 (NCI-H226): > 100 µM (inactive) | GI50 (NCI-H23): > 100 µM (inactive) | GI50 (NCI-H460): 59 µM (inactive) | GI50 (NCI-H522): > 100 µM (inactive) | GI50 (NCI/ADR-RES): > 100 µM (inactive) | GI50 (OVCAR-3): > 100 µM (inactive) | GI50 (OVCAR-4): > 100 µM (inactive) | GI50 (OVCAR-5): > 100 µM (inactive) | GI50 (OVCAR-8): > 100 µM (inactive) | GI50 (PC-3): 45.6 µM (inactive) | GI50 (RPMI-8226): 19 µM (inactive) | GI50 (RXF 393): > 100 µM (inactive) | GI50 (SF-268): > 100 µM (inactive) | GI50 (SF-295): 93.3 µM (inactive) | GI50 (SF-539): > 100 µM (inactive) | GI50 (SK-MEL-28): > 100 µM (inactive) | GI50 (SK-MEL-2): > 100 µM (inactive) | GI50 (SK-MEL-5): > 100 µM (inactive) | GI50 (SK-OV-3): > 100 µM (inactive) | GI50 (SN12C): > 100 µM (inactive) | GI50 (SNB-19): > 100 µM (inactive) | GI50 (SNB-75): > 100 µM (inactive) | GI50 (SW-620): 78.5 µM (inactive) | GI50 (T47D): 66.2 µM (inactive) | GI50 (TK-10): > 100 µM (inactive) | GI50 (U-251): > 100 µM (inactive) | GI50 (UACC-257): > 100 µM (inactive) | GI50 (UACC-62): > 100 µM (inactive) | GI50 (UO-31): 99.8 µM (inactive)
